Results reported in patent US10626094B2 (La Jolla Institute of Allergy & Immunology, priority 2014, dated 2020).
Where two headings read alike, the source gives them in different places.

Tests used:
[1] = target: LMPTP-A (Low Molecular Weight Protein Tyrosine Phosphatase-A) enzyme (Homo sapiens (Human), UniProt P24666); assay: LMPTP primary screening / LMPTP (OMFP) enzyme inhibition assay, fluorescence intensity; format: biochemical
Method in brief: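 0.625 nM LMPTP-A with 400 μM OMFP substrate in 50 mM Bis-Tris pH 6.0, 1 mM DTT, 0.01% Triton X-100, […]. Compounds at 20 μM final. Incubated 50 min at room temperature in the dark; fluorescence intensity read.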

[2] = target: recombinant human LMPTP-A (Homo sapiens (Human), UniProt P24666); assay: isothermal calorimetry (ITC) binding
Experimental: ML400 analog G53 (Table A) binds to LMPTP. ITC was performed using recombinant human LMPTP-A and a derivative of Compound D1, G53. Kd=0.9 microM.

[3] = plasma stability, human plasma; format: in vitro ADME; settings: Human plasma, 3 hrs
Excerpt: (§1) Plasma stability is a measure of the stability of small molecules and peptides in plasma and is an important parameter, which can strongly influence the in vivo efficacy of a test compound. Drug candidates are exposed to enzymatic processes (proteinases. esterases) in plasma, and they can undergo intramolecular rearrangement or bind irreversibly (covalently) to proteins.

[4] = hepatic microsomal stability, mouse liver microsomes; format: in vitro ADME; settings: Mouse microsomes, 1 hr
Excerpt: (§2) In the course of this investigation many compounds with similar potencies in the LMPTP (OMFP) assay were found. In order to determine which compound would be the best candidate for in vivo studies, an abbreviated ADME panel was ran on these compounds, a tabulation of the most interesting data on this set of compounds is illustrated in Table 3 below. From the hepatic microsome stability data the candidate selected for in vivo studies was Compound D1.
(§3) The microsomal stability assay is commonly used to rank compounds according to their metabolic stability. This assay addresses the pharmacologic question of how long the parent compound will remain circulating in plasma within the body.

[5] = hepatic microsomal stability, human liver microsomes; format: in vitro ADME; settings: Human microsomes, 1 hr
Excerpt: as §2, §3

[6] = plasma stability, mouse plasma; format: in vitro ADME; settings: Mouse plasma, 3 hrs
Excerpt: as §1

[7] = aqueous solubility (buffer pH 5.0-7.4, PBS); format: physicochemical
[8] = test system: insulin receptor in HepG2 cells; settings: 10 microM compound overnight, insulin 5 min
[9] = LMPTP-A, OMFP substrate, method of Example 2, read-out: IC50

LMPTP-A (Low Molecular Weight Protein Tyrosine Phosphatase-A) enzyme, sequence (P24666 whole entry): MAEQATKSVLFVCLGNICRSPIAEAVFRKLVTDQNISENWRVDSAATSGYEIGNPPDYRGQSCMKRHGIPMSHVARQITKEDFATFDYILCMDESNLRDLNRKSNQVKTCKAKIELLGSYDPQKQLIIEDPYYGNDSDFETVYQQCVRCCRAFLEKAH
recombinant human LMPTP-A, sequence (P24666 whole entry): as above

Compound: COc1ccc(-c2cc(Nc3cccc(CC4CCNCC4)c3)c3ccccc3n2)cc1 [Compound G53, [2-(4-methoxyphenyl)(4-quinolyl)][3-(4-piperidylmethyl)phenyl]amine]
- IC50 [1, 9]: 0.801 to 5 µM
- Kd [2]: 0.9 µM

Compound: c1ccc(-c2cc(NCCN3CCCCC3)c3ccccc3n2)cc1 [Entry 41]
- Plasma Stability % Remaining @ 3 hrs [3]: 70.08%
- Hepatic Microsome Stability % Remaining @ 1 hr [4]: 0.38%
- Hepatic Microsome Stability % Remaining @ 1 hr [5]: 26.54%
- Plasma Stability % Remaining @ 3 hrs [6]: 62.25%
- Aqueous Solubility Pion's buffer ([7]; pH 5.0): 0.1118 mg/mL
- Aqueous Solubility Pion's buffer ([7]; pH 6.2): 0.0957 mg/mL
- Aqueous Solubility Pion's buffer ([7]; pH 7.4): 0.0545 mg/mL
- IC50 ([1]; Table 2 quinoline series, CP sample (cherry pick of DMSO solution from NIH MLSMR), read-out: LMPTP (OMFP) (IC50)): 3.49 µM
- IC50 ([1]; Table 2 quinoline series, P sample (purchased from commercial sources), read-out: LMPTP (OMFP) (IC50)): 2.86 µM
- IC50 ([1]; Table 2 quinoline series, S sample (synthesized de novo), read-out: LMPTP (OMFP) (IC50)): 3.7 µM
- IC50 ([1]; initial screening hits (Scheme 4), read-out: IC50): 3.49 µM
- IC50 ([1]; purchased compound, read-out: LMPTP (OMFP) IC50): 2.86 µM
- IC50 ([1]; synthesized compound, read-out: LMPTP (OMFP) IC50): 3.7 µM
- phosphorylation of the insulin receptor [8]: increases phosphorylation of the insulin receptor

Compound: COc1ccc(-c2cc(NCCc3ccc(C(F)(F)F)cc3)c3ccccc3n2)cc1 [Compound G86, [2-(4-methoxyphenyl)(4-quinolyl)]{2-[4-(trifluoromethyl)phenyl]ethyl}amine]
- IC50 [1, 9]: 0.801 to 5 µM

Compound: COc1ccc(-c2cc(NCc3cccc(OC)c3)c3ccccc3n2)cc1 [Compound G78, [2-(4-methoxyphenyl)(4-quinolyl)][(3-methoxyphenyl)methyl]amine]
- IC50 [1, 9]: 0.801 to 5 µM

Compound: COc1ccc(-c2cc(Nc3cccc(C)n3)c3ccccc3n2)cc1 [Compound G67, [2-(4-methoxyphenyl)(4-quinolyl)](6-methyl(2-pyridyl))amine]
- IC50 [1, 9]: 0.801 to 5 µM

Compound: CN(C)Cc1cc(CO)cc(Nc2cc(-c3cccc(Cl)c3)nc3ccccc23)c1 [Compound I13, (5-[(dimethylamino)methyl]-3-{[2-(3-chlorophenyl)(4-quinolyl)]amino}phenyl)methan-1-ol]
- IC50 [1, 9]: 0.801 to 5 µM

Compound: 2-(3-bromo-4-chloro-2-fluorophenyl)(4-quinolyl)](3-piperidylpropyl)amine [Compound I101]
- IC50 [1, 9]: 0.801 to 5 µM

Compound: Clc1cccc(-c2cc(Nc3ccc(CN4CCCCC4)cc3)c3ccccc3n2)c1 [Compound I11, [2-(3-chlorophenyl)(4-quinolyl)][4-(piperidylmethyl)phenyl]amine]
- IC50 [1, 9]: 0.801 to 5 µM

Compound: FC(F)(F)c1ccc(-c2cc(Nc3ccccc3CC3CCNCC3)c3ccccc3n2)c(C(F)(F)F)c1 [Compound I55, {2-[2,4-bis(trifluoromethyl)phenyl](4-quinolyl)}[2-(4-piperidylmethyl)phenyl]amine]
- IC50 [1, 9]: > 5 µM

Compound: COc1ccc(-c2cc(NCc3ccc(C(F)(F)F)cc3)c3ccccc3n2)cc1 [Compound G81, [2-(4-methoxyphenyl)(4-quinolyl)]{[4-(trifluoromethyl)phenyl]methyl}amine]
- IC50 [1, 9]: 0.801 to 5 µM

Compound: CN(C)c1cc(-c2cnn(C)c2)nc2ccccc12 [Compound G19, Dimethyl[2-(1-methylpyrazol-4-yl)(4-quinolyl)]amine]
- IC50 [1, 9]: > 5 µM

Compound: c1ccc2c(NCCCC3CCCNC3)cc(-c3ccoc3)nc2c1 (stereo not drawn) [Compound I177, (2-(3-furyl)(4-quinolyl))(3-piperidylpropyl)amine]
- IC50 [1, 9]: 0.801 to 5 µM

Compound: FC(F)(F)c1cc(-c2cc(Nc3cccc(CC4CCN(Cc5ccccc5)CC4)c3)c3ccccc3n2)cc(C(F)(F)F)c1 [Compound I50, {2-[3,5-bis(trifluoromethyl)phenyl](4-quinolyl)}(3-{[1-benzyl(4-piperidyl)]methyl}phenyl)amine]
- IC50 [1, 9]: > 5 µM

Compound: O=S(=O)(c1ccccc1-c1cc(NCCCN2CCCCC2)c2ccccc2n1)N1CCOCC1 [Compound I233]
- IC50 [1, 9]: > 5 µM

Compound: COc1ccc(-c2cc(Nc3cccc(C(F)(F)F)c3)c3ccccc3n2)cc1 [Compound G37, [2-(4-Methoxy-phenyl)-quinolin-4-yl]-(3-trifluoromethyl-phenyl)-amine]
- IC50 [1, 9]: > 5 µM

Compound: O=S(=O)(c1ccccc1)n1ccc2cc(-c3cc(NCCCN4CCCCC4)c4ccccc4n3)ccc21 [Compound I260]
- IC50 [1, 9]: 0.801 to 5 µM

Compound: NC(=O)c1ccc(-c2cc(Nc3cccc(CC4CCNCC4)c3)c3ccccc3n2)cc1 [Compound I3, 4-(4-{[3-(4-piperidylmethyl)phenyl]amino}-2-quinolyl)benzamide]
- IC50 [1, 9]: 0.801 to 5 µM

Compound: FC(F)(F)c1ccc(C(F)(F)F)c(-c2cc(Nc3cccc(CC4CCN(Cc5ccccc5)CC4)c3)c3ccccc3n2)c1 [Compound I40, {2-[2,5-bis(trifluoromethyl)phenyl](4-quinolyl)}(3-{[1-benzyl(4-piperidyl)]methyl}phenyl)amine]
- IC50 [1, 9]: > 5 µM

Compound: COc1ccc(-c2cc(NCCCN3CCCCC3)c3cc(C(F)(F)F)ccc3n2)cc1 [Compound G28, [2-(4-Methoxy-phenyl)-6-trifluoromethyl-quinolin-4-yl]-(3-piperidin-1-yl-propyl)-amine]
- IC50 [1, 9]: > 5 µM

Compound: CCOC(=O)c1ccc(Nc2cc(-c3ccc(OC)cc3)nc3ccccc23)cc1 [Compound G45, ethyl 4-{[2-(4-methoxyphenyl)-4-quinolyl]amino}benzoate]
- IC50 [1, 9]: > 5 µM

Compound: O=C(c1ccc(-c2cc(NCCCN3CCCCC3)c3ccccc3n2)cc1)N1CCCCC1 [Compound I194, piperidyl 4-{4-[(3-piperidylpropyl)amino](2-quinolyl)}phenyl ketone]
- IC50 [1, 9]: 0.801 to 5 µM

Compound: COc1ccc(-c2cc(NCCCN3CCCCC3)c3cc([N+](=O)[O-])ccc3n2)cc1 [Compound G29, [2-(4-Methoxy-phenyl)-6-nitro-quinolin-4-yl]-(3-piperidin-1-yl-propyl)-amine]
- IC50 [1, 9]: > 5 µM

Compound: COc1ccc(-c2cc(NCCc3ccncc3)c3ccccc3n2)cc1 [Compound I201, [2-(4-methoxyphenyl)(4-quinolyl)](2-(4-pyridyl)ethyl)amine]
- IC50 [1, 9]: 0.801 to 5 µM

Compound: Cc1noc(C)c1-c1cc(NCCCN2CCCCC2)c2ccccc2n1 [Compound I112]
- IC50 [1, 9]: > 5 µM

Compound: Clc1cc(-c2cc(NCCCN3CCCCC3)c3ccccc3n2)ccn1 [Compound I102]
- IC50 [1, 9]: 0.801 to 5 µM

Compound: O=S(=O)(c1ccc(-c2cc(NCCCN3CCCCC3)c3ccccc3n2)cc1)N1CCOCC1 [Compound I236]
- IC50 [1, 9]: 0.2 to 0.8 µM

Compound: c1ccc2c(NCCCN3CCCCC3)cc(-c3ccc4c(c3)OCCO4)nc2c1 [Compound I125]
- IC50 [1, 9]: 0.801 to 5 µM

Compound: CN(C)CCNC(=O)c1ccc(-c2cc(NCCCN3CCCCC3)c3ccccc3n2)cc1 [Compound I66]
- IC50 [1, 9]: 0.2 to 0.8 µM
